Measured values: US20080193398A1, “Derivatives of Heptaazaphenalene, Methods for Obtaining Them, and Their Use as Protecting Agents Against Uv Radiation” (ISDIN, S.A., priority 2005, published 2008)
Where “and” joins values, the source holds several entries; their conditions need not be identical. Equal values may be shown once.

Experiment: UV absorption (UV λmax and εmax) in solution
Assay type: physicochemical
Conditions: CHCl3-MeOH
Text: There follow some examples where the UV λmax and εmax have been measured according to general methods known for the person skilled in the art by way of non-restrictive illustration of the present invention.

SMILES | UV λmax [nm] | εmax [M⁻¹ cm⁻¹]
c1ccc2[nH]c(-c3ccc(NC4=NC5=NC(Nc6ccc(-c7nc8ccccc8[nH]7)cc6)=NC6=NC(Nc7ccc(-c8nc9ccccc9[nH]8)cc7)=NC(=N4)N56)cc3)nc2c1 [Example 7, 2,5,8-tris-(4-(1H-benzo[d]imidazol-2-yl)phenylamino)-1,3,4,6,7,9,9b-heptaazaphenalene] | 358 | 107000

Same assay, conditions: CHCl3—EtOH

SMILES | UV λmax [nm] | εmax [M⁻¹ cm⁻¹]
CCCCOC(=O)c1ccc(NC2=NC3=NC(Nc4ccc(C(=O)OCCCC)cc4)=NC4=NC(Nc5ccc(C(=O)OCCCC)cc5)=NC(=N2)N34)cc1 [Example 1, 2,5,8-tris-(4-(butoxycarbonyl)phenylamino)-1,3,4,6,7,9,9b-heptaazaphenalene] | 325 | 100000

Same assay, conditions: DMSO

SMILES | UV λmax | εmax
CCOC(=O)/C=C/c1ccc(NC2=NC3=NC(Nc4ccc(/C=C/C(=O)OCC)cc4)=NC4=NC(Nc5ccc(/C=C/C(=O)OCC)cc5)=NC(=N2)N34)cc1 [Example 22, 2,5,8-tris-(4-((E)-3-ethoxy-3-oxoprop-1-enyl)phenylamino)-1,3,4,6,7,9,9b-heptaazaphenalene] | 359 nm | 135900 M⁻¹ cm⁻¹
CCCCOC(=O)c1ccc(NC2=NC3=NC(Nc4ccc(C(=O)OCCCC)cc4)=NC4=NC(c5cn(C)c6ccccc56)=NC(=N2)N34)cc1 [Example 18] | 337 nm | 65000 M⁻¹ cm⁻¹
CC(C)[C@@H]1CC[C@@H](C)C[C@H]1OC(=O)c1ccc(NC2=NC3=NC(Nc4ccc(C(=O)O[C@@H]5C[C@H](C)CC[C@H]5C(C)C)cc4)=NC4=NC(Nc5ccc(C(=O)O[C@@H]6C[C@H](C)CC[C@H]6C(C)C)cc5)=NC(=N2)N34)cc1 [Example 30, 2,5,8-tris-(4-(L-menthylcarbonyl)phenylamino)-1,3,4,6,7,9,9b-heptaazaphenalene] | 326 nm | 118000 M⁻¹ cm⁻¹
CCCCC(CC)COC(=O)/C=C/c1ccc(NC2=NC3=NC(Nc4ccc(/C=C/C(=O)OCC(CC)CCCC)cc4)=NC4=NC(Nc5cccc(/C=C/C(=O)OCC(CC)CCCC)c5)=NC(=N2)N34)cc1 (stereo not drawn) [Example 34, 2-(3-((E)-3-(2-ethylhexyloxy)-3-oxoprop-1-enyl)phenylamino)-5,8-bis-(4-((E) -3-(2-ethylhexyloxy)-3-oxoprop-1-enyl)phenylamino)-1,3,4,6,7,9,9b-heptaazaphenalene] | 288 nm and 354 nm | 66000 M⁻¹ cm⁻¹ and 113000 M⁻¹ cm⁻¹
c1cc2cc(NC3=NC4=NC(Nc5ccc6[nH]ccc6c5)=NC5=NC(Nc6ccc7[nH]ccc7c6)=NC(=N3)N45)ccc2[nH]1 [Example 46, 2,5,8-tris-(1H-indol-5-ylamino)-1,3,4,6,7,9,9b-heptaazaphenalene] | 331 nm | 46000 M⁻¹ cm⁻¹
CC1CC(OC(=O)c2ccc(NC3=NC4=NC(Nc5ccc(C(=O)OC6CC(C)CC(C)(C)C6)cc5)=NC5=NC(Nc6ccc(C(=O)OC7CC(C)CC(C)(C)C7)cc6)=NC(=N3)N45)cc2)CC(C)(C)C1 (stereo not drawn) [Example 31, 2,5,8-tris-(4-((3,3,5-trimethylcyclohexyloxy)carbonyl)phenylamino)-1,3,4,6,7,9,9b-heptaazaphenalene] | 329 nm | 143000 M⁻¹ cm⁻¹
Cc1cc(N)c(NC2=NC3=NC(Nc4cc(C)c(C)cc4N)=NC4=NC(Nc5cc(C)c(C)cc5N)=NC(=N2)N34)cc1C [Example 48, 2,5,8-tris-(2-amino-4,5-dimethylphenylamino)-1,3,4,6,7,9,9b-heptaazaphenalene] | 270 nm | 44000 M⁻¹ cm⁻¹
c1ccc(-c2ccc(OC3=NC4=NC(Oc5ccc(-c6ccccc6)cc5)=NC5=NC(Oc6ccc(-c7ccccc7)cc6)=NC(=N3)N45)cc2)cc1 [Example 19, 2,5,8-tris-(biphenyl-4-yloxy)-1,3,4,6,7,9,9b-heptaazaphenalene] | 262 nm | 81000 M⁻¹ cm⁻¹
CCCCCCCCC(CCCCCC)COC(=O)c1ccc(NC2=NC3=NC(Nc4ccc(C(=O)OCC(CCCCCC)CCCCCCCC)cc4)=NC4=NC(Nc5ccc(C(=O)OCC(CCCCCC)CCCCCCCC)cc5)=NC(=N2)N34)cc1 (stereo not drawn) [Example 38, 2,5,8-tris-(4-(^2-hexyldecyloxycarbonyl)phenylamino)-1,3,4,6,7,9,9b-heptaazaphenalene] | 324 nm | 121000 M⁻¹ cm⁻¹
c1ccc(Nc2ccc(NC3=NC4=NC(Nc5ccc(Nc6ccccc6)cc5)=NC5=NC(Nc6ccc(Nc7ccccc7)cc6)=NC(=N3)N45)cc2)cc1 [Example 27, 2,5,8-tris-(4-(phenylamino)phenylamino)-1,3,4,6,7,9,9b-heptaazaphenalene] | 360 nm | 60000 M⁻¹ cm⁻¹
O=[N+]([O-])c1cccc(NC2=NC3=NC(Nc4cccc([N+](=O)[O-])c4)=NC4=NC(Nc5cccc([N+](=O)[O-])c5)=NC(=N2)N34)c1 [Example 35, 2,5,8-tris-(3-nitrophenylamino)-1,3,4,6,7,9,9b-heptaazaphenalene] | 308 nm | 113000 M⁻¹ cm⁻¹

Experiment: not given
Conditions: not given

SMILES | melting point [°C]
CCOC(=O)/C=C/c1ccc(NC2=NC3=NC(Nc4ccc(/C=C/C(=O)OCC)cc4)=NC4=NC(Nc5ccc(/C=C/C(=O)OCC)cc5)=NC(=N2)N34)cc1 [Example 22, 2,5,8-tris-(4-((E)-3-ethoxy-3-oxoprop-1-enyl)phenylamino)-1,3,4,6,7,9,9b-heptaazaphenalene] | > 275
CCCCOC(=O)c1ccc(NC2=NC3=NC(Nc4ccc(C(=O)OCCCC)cc4)=NC4=NC(Nc5ccc(C(=O)OCCCC)cc5)=NC(=N2)N34)cc1 [Example 1, 2,5,8-tris-(4-(butoxycarbonyl)phenylamino)-1,3,4,6,7,9,9b-heptaazaphenalene] | 289 to 290
CC(C)[C@@H]1CC[C@@H](C)C[C@H]1OC(=O)c1ccc(NC2=NC3=NC(Nc4ccc(C(=O)O[C@@H]5C[C@H](C)CC[C@H]5C(C)C)cc4)=NC4=NC(Nc5ccc(C(=O)O[C@@H]6C[C@H](C)CC[C@H]6C(C)C)cc5)=NC(=N2)N34)cc1 [Example 30, 2,5,8-tris-(4-(L-menthylcarbonyl)phenylamino)-1,3,4,6,7,9,9b-heptaazaphenalene] | 202 to 206
CC1CC(OC(=O)c2ccc(NC3=NC4=NC(Nc5ccc(C(=O)OC6CC(C)CC(C)(C)C6)cc5)=NC5=NC(Nc6ccc(C(=O)OC7CC(C)CC(C)(C)C7)cc6)=NC(=N3)N45)cc2)CC(C)(C)C1 (stereo not drawn) [Example 31, 2,5,8-tris-(4-((3,3,5-trimethylcyclohexyloxy)carbonyl)phenylamino)-1,3,4,6,7,9,9b-heptaazaphenalene] | > 275
